Reference: patent publication US12297213B2, “Metal hydroxide complex comprising modified multilayer hydroxide structure comprising active ingredient and method of manufacturing same” (CNPHARM CO., LTD., priority 2018, dated 2025)

What was measured:
COL1A1 mRNA = experiment: COL1A1 (type 1 collagen) mRNA expression by qRT-PCR in human dermal fibroblasts; assay type: cell-based; conditions: positive control at 5.0 ng/ml, mean±SD
Description: (§1) For the in-vitro collagen production increase test of Example 3 (hereinafter, referred to as “JL-101 powder”), normal human dermal fibroblasts (HDFs) were used. In order to set the test solution concentration of the sample, HDFs were treated with the sample material for 24 hr and the concentration range in which cytotoxicity was not observed was confirmed through a cytotoxicity test. HDFs were treated with 'JL-101 powder' at the set test solution concentration in the same manner, and thus the expression levels of COL1A1 and COL3A1 mRNA, which are collagen genes, were compared and analyzed using real-time PCR (RT-PCR). […] The expression level of a collagen gene was determined by measuring the expression levels of a COL1A1 gene, which is a representative component of type 1 collagen, and of a COL3A1 gene, which is a representative component of type 3 collagen, using quantitative real-time PCR (qRT-PCR) (Peter, 2008). […] The concentration and purity (A260/A280 and A260/A230 ratio) of total mRNA were measured using a MaestroNano® microvolume spectrophotometer (Maestrogen, Las Vegas, NV, USA), and only total mRNA having high purity of 2.0 or more was selected. […] Mix Plus (Solis BioDyne, Estonia), and the expression of the corresponding gene was analyzed using Line-Gene K software (Bioer Technology Co. Ltd., Hangzhou, China). […]

COL3A1 mRNA = experiment: COL3A1 (type 3 collagen) mRNA expression by qRT-PCR in human dermal fibroblasts; assay type: cell-based; conditions: positive control at 5.0 ng/ml, mean±SD
Description: as §1

For TGF-β, the “increase of expression of COL1A1 mRNA compared to the negative control” value (COL1A1 mRNA) was 219.65±7.25% and the “increase of expression of COL3A1 mRNA compared to the negative control” value (COL3A1 mRNA) was 22.93±6.21%.
